Values quoted from earlier work as cited in patent US20220288091A1, “Method for Improving Insulin Sensitivity” (priority 2019, published 2022).

Key:
Settings in all cases: Miner et al.; cited from earlier work
[1] = target: T1, receptors for mineralocorticoids (Homo sapiens, UniProt P08235)
T1 sequence (P08235 1-984): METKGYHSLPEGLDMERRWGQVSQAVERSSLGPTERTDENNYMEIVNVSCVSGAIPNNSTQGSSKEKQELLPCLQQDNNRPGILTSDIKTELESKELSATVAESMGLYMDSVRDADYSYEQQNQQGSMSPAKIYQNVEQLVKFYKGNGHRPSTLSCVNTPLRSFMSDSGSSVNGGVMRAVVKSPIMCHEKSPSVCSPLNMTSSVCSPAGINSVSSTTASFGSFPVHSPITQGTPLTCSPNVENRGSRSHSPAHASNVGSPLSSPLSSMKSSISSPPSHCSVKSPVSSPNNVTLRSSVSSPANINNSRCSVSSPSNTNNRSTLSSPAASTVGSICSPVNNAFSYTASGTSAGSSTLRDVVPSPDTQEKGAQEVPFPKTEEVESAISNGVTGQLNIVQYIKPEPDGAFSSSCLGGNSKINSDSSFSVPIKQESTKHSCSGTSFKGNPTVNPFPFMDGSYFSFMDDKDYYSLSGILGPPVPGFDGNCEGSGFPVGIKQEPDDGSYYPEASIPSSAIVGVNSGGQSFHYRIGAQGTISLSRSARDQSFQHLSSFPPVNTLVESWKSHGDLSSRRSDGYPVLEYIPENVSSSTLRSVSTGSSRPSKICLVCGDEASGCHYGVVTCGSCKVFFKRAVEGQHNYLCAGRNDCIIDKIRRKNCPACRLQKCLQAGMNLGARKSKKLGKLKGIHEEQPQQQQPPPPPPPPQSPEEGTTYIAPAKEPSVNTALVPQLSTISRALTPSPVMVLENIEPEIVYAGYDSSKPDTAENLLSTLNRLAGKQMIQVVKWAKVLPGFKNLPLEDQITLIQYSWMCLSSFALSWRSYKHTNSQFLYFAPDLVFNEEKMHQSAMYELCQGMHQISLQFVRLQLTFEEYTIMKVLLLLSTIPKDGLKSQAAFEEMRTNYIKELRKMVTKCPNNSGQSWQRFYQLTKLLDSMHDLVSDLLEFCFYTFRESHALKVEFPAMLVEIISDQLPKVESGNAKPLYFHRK

receptors for progestins = target: T2, receptors for progestins (Homo sapiens, UniProt P06401)
T2 sequence (P06401 1-933): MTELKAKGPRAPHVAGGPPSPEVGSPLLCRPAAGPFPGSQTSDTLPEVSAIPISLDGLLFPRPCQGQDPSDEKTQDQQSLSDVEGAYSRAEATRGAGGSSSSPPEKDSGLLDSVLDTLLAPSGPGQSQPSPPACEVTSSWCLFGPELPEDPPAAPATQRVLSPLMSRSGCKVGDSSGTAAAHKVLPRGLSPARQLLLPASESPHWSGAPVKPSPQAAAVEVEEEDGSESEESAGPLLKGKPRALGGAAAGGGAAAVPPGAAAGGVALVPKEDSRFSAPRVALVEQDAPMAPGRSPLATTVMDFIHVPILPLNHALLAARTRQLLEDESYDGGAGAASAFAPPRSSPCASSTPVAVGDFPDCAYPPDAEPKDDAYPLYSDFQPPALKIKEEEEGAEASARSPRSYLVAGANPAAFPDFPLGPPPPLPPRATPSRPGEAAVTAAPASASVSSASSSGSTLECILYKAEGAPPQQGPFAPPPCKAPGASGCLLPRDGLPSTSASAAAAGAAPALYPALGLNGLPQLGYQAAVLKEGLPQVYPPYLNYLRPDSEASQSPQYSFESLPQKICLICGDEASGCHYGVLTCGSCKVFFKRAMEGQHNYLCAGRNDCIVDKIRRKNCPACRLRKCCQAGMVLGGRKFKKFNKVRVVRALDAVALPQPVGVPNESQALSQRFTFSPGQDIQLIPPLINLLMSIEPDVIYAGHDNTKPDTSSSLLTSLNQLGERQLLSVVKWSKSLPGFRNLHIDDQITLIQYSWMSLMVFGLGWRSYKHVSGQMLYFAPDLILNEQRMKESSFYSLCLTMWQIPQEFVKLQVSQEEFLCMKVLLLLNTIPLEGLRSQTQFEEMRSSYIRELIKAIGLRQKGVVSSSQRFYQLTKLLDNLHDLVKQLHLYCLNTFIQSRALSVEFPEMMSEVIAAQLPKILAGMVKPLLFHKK

receptors for estrogens = tested on: receptors for estrogens
GR = target: T3, GR (Homo sapiens, UniProt P04150)
T3 sequence (P04150 1-777): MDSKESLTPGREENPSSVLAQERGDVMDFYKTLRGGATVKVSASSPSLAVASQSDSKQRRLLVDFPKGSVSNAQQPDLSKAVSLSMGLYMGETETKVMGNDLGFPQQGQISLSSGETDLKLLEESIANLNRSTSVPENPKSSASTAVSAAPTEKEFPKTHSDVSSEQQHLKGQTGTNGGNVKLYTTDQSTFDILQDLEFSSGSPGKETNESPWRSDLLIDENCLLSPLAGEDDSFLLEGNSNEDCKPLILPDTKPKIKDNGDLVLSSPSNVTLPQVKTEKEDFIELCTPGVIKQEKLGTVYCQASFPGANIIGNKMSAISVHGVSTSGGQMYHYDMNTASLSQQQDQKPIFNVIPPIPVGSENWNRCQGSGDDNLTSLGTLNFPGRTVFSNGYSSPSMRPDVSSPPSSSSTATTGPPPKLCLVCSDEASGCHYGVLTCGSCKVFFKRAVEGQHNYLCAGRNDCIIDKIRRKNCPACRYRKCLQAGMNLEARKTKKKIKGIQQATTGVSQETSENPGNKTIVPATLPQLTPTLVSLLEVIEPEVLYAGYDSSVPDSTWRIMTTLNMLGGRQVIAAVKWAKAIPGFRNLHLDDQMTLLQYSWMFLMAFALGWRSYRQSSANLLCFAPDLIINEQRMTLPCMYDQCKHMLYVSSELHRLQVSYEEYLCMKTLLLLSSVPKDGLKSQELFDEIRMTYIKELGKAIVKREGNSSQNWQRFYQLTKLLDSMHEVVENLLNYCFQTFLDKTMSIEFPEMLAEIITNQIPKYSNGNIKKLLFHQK

receptors for androgens = target: T4, receptors for androgens (Homo sapiens, UniProt P10275)
T4 sequence (P10275 1-920): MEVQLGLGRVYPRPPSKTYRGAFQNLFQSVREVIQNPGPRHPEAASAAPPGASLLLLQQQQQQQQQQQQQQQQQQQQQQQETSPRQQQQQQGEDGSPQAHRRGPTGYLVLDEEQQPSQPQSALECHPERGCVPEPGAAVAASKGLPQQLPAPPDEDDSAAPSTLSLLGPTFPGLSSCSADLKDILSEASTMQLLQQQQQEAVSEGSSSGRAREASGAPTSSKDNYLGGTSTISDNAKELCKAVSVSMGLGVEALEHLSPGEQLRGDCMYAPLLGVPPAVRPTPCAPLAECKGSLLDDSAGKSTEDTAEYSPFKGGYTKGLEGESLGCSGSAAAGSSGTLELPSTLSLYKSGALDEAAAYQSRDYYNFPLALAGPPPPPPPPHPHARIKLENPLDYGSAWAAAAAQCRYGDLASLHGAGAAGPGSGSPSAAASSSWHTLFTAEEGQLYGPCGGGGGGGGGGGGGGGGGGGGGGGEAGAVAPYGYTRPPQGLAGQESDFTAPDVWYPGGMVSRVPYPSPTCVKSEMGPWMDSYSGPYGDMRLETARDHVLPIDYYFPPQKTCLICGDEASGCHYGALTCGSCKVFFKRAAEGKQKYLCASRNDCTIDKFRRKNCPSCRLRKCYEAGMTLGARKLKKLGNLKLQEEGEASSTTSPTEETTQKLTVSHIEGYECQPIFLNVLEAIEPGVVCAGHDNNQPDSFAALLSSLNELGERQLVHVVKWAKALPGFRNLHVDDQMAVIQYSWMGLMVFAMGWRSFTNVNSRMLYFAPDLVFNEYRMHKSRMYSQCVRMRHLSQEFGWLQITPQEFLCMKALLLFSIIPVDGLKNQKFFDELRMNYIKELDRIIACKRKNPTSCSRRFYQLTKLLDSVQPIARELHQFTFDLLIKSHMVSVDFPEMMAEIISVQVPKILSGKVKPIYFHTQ

CN(C)c1ccc(C(c2ccc(N(C)C)cc2)c2cc([N+](=O)[O-])ccc2Cl)cc1 [[bis(4-N,N-dimethylaminophenyl)(2-chloro-5-nitrophenyl)methane]]
Affinity for mineralocorticoid receptor [1]: no detectable affinity
Affinity for progestin receptor (receptors for progestins): no detectable affinity
Affinity for estrogen receptor (receptors for estrogens): no detectable affinity
Affinity for the GR (GR): nanomolar affinity
Affinity for androgen receptor (receptors for androgens): no detectable affinity
